Where a SMILES comes first, the peptide text is derived from it. Bridges are numbered along the chain shown (N, C = ends). [ ]: non-standard residue; d: D form. The star is where a group is joined. Ileψ(thiazoline)Cys = CC[C@H](C)[C@H](N)C1=N[C@H](C(=O)*)CS1; dOrn = NCCC[C@@H](N)C(=O)O
Assays:
[1] = molecular target: 5-hydroxytryptamine receptor 2B (Homo sapiens, UniProt P41595); format: cell membranes, CHO-K1, Membrane; conditions: cho-k1; further: in other assays of this panel Not Active means under 50% inhibition at 10 µM
Cytochrome P450 2E1 = Cytochrome P450 2E1 (Homo sapiens, UniProt P05181); conditions: bti-tn-5b1-4; further: in other assays of this panel Not Active means under 50% inhibition at 10 µM
Melanocortin receptor 3 = Melanocortin receptor 3 (Homo sapiens, UniProt P41968); format: cell membranes, Membrane; conditions: hek293; further: in other assays of this panel Not Active means under 50% inhibition at 10 µM
D(3) dopamine receptor = D(3) dopamine receptor (Homo sapiens, UniProt P35462); test: DRUGMATRIX: Dopamine D3 radioligand binding (ligand: [3H] Spiperone); format: cell membranes, CHO, Membrane; conditions: cho
[2] = molecular target: T1, Alpha-1A adrenergic receptor (Rattus norvegicus, UniProt P43140); test: DRUGMATRIX: Alpha-1A adrenergic receptor radioligand binding (ligand: prazosin); format: cell membranes, Wistar, Submaxillary gland, Membrane; conditions: Not Active = under 50% inhibition at 10 µM
T1 sequence (P43140 whole entry): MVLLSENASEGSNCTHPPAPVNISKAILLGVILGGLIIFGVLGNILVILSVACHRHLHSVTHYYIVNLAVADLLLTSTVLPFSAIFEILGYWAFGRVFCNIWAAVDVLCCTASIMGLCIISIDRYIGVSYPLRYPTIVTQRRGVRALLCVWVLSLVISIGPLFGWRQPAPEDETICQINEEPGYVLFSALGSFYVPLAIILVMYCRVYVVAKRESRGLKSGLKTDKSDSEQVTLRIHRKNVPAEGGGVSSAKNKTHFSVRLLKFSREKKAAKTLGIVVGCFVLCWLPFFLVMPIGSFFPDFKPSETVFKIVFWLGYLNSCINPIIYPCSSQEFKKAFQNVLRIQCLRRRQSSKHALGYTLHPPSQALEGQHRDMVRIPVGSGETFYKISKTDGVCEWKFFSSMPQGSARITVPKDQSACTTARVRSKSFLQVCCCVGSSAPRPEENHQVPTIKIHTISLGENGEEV

[3] = molecular target: T2, 5-hydroxytryptamine receptor 1A (Rattus norvegicus, UniProt P19327); format: cell membranes, CHO-K1, Membrane; conditions: cho-k1; further: in other assays of this panel Not Active means under 50% inhibition at 10 µM
T2 sequence (P19327 whole entry): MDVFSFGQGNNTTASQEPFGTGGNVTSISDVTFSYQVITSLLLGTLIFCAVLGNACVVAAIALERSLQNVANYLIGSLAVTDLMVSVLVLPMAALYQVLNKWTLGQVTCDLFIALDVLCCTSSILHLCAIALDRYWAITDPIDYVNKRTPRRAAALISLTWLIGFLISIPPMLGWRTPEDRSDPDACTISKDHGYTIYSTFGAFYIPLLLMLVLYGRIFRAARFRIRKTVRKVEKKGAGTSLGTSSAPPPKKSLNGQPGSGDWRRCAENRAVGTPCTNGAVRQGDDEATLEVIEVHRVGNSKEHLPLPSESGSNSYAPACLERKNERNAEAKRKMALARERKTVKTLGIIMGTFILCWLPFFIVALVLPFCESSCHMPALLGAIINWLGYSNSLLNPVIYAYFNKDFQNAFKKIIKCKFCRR

[4] = molecular target: C-C chemokine receptor type 2 (Homo sapiens, UniProt P41597); format: cell membranes, CHO-K1, Membrane; conditions: cho-k1; further: in other assays of this panel Not Active means under 50% inhibition at 10 µM
[5] = molecular target: Prostaglandin G/H synthase 1 (Homo sapiens, UniProt P23219); test: biochemical; format: tissue-based, Platelet; conditions: platelet
Thromboxane-A synthase = molecular target: T3, Thromboxane-A synthase (Homo sapiens, UniProt P24557); test: biochemical; format: tissue-based, Platelet; conditions: platelet
T3 sequence (P24557 whole entry): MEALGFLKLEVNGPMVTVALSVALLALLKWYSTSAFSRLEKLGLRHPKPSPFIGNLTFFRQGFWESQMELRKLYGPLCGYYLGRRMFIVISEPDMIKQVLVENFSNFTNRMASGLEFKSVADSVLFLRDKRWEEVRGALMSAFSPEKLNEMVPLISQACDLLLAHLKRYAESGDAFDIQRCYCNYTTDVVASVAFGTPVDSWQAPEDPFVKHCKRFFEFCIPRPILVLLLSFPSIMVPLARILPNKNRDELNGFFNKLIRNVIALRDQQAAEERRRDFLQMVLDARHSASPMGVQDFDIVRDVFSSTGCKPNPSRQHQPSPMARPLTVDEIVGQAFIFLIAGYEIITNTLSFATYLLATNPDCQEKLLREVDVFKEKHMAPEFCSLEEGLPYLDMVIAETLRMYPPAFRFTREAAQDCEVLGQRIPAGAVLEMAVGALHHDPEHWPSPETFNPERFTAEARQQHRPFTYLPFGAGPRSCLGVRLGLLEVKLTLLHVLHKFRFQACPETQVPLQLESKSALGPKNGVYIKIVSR

[6] = molecular target: Beta-3 adrenergic receptor (Homo sapiens, UniProt P13945); test: DRUGMATRIX: Adrenergic beta3 radioligand binding (ligand: [125I] Cyanopindolol); format: cell membranes, HEK293, Membrane; conditions: hek293; Not Active = under 50% inhibition at 10 µM
[7] = molecular target: Beta-1 adrenergic receptor (Homo sapiens, UniProt P08588); test: DRUGMATRIX: Adrenergic beta1 radioligand binding (ligand: [125I] Cyanopindolol); format: cell membranes, CHO-K1, Membrane; conditions: cho-k1; Not Active = under 50% inhibition at 10 µM
[8] = molecular target: T4, Alpha-1D adrenergic receptor (Homo sapiens, UniProt P25100); format: cell membranes, HEK293, Membrane; conditions: hek293; further: in other assays of this panel Not Active means under 50% inhibition at 10 µM
T4 sequence (P25100 whole entry): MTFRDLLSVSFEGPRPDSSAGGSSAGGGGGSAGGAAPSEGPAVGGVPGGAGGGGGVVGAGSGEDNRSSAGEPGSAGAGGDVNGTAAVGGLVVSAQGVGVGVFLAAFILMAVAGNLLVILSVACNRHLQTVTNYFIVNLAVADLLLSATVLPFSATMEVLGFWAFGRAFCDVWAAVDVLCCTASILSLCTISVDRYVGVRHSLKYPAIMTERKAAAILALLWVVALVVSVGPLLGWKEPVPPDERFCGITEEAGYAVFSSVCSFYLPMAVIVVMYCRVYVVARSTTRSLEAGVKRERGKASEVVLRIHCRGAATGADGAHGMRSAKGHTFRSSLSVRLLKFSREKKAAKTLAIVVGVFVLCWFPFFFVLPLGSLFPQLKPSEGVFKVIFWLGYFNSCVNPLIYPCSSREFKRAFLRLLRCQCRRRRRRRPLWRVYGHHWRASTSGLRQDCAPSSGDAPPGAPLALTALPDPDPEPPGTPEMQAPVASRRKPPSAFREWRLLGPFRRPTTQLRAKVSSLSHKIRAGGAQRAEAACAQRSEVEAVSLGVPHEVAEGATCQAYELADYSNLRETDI

[9] = DRUGMATRIX: Serotonin (5-Hydroxytryptamine) 5-HT3 radioligand binding (ligand: [3H] GR-65630); format: cell membranes, Membrane; conditions: hek293; Not Active = under 50% inhibition at 10 µM

5-hydroxytryptamine receptor 2B, sequence (P41595 whole entry): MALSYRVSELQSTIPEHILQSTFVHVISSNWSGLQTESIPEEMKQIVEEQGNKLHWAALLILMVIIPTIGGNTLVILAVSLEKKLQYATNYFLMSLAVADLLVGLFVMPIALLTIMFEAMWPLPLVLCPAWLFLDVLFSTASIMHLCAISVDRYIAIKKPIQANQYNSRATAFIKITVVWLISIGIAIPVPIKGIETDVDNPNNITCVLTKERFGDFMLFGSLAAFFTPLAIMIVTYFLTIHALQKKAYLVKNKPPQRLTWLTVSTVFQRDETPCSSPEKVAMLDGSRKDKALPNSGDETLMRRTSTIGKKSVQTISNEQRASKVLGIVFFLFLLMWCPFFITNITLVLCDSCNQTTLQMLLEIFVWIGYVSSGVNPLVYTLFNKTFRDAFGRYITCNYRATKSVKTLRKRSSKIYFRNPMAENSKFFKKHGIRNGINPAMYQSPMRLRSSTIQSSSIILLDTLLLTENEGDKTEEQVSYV
Melanocortin receptor 3, sequence (P41968 whole entry): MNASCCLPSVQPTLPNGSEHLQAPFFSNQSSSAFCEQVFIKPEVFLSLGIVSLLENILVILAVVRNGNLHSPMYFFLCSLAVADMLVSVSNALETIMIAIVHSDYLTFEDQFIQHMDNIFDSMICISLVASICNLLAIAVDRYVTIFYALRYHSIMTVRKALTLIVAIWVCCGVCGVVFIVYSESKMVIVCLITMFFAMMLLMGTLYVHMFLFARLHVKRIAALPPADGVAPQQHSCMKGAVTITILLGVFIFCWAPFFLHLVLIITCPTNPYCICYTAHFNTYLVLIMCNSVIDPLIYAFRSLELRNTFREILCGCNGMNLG
C-C chemokine receptor type 2, sequence (P41597 whole entry): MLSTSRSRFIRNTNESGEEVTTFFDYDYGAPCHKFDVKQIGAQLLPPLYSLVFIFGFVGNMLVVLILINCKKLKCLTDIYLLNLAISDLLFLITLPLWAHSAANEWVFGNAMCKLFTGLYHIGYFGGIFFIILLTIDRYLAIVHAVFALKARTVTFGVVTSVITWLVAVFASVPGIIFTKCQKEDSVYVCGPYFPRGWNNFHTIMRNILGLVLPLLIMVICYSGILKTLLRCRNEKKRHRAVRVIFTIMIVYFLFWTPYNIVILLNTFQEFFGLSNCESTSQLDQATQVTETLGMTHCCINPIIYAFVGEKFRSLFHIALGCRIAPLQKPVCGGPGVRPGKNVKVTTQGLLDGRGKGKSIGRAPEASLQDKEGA
Beta-1 adrenergic receptor, sequence (P08588 whole entry): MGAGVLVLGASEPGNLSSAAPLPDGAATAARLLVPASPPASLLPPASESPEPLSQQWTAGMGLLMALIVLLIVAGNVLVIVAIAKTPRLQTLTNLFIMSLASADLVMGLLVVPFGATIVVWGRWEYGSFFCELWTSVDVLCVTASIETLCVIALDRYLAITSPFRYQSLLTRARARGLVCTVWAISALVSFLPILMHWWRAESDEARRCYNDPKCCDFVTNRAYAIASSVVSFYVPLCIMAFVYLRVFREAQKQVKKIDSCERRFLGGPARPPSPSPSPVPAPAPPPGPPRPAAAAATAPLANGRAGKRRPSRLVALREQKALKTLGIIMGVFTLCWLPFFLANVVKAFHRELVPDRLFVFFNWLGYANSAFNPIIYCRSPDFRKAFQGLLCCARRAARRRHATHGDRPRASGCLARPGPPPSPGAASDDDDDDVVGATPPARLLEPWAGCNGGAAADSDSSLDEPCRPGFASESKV
D(3) dopamine receptor, sequence (P35462 whole entry): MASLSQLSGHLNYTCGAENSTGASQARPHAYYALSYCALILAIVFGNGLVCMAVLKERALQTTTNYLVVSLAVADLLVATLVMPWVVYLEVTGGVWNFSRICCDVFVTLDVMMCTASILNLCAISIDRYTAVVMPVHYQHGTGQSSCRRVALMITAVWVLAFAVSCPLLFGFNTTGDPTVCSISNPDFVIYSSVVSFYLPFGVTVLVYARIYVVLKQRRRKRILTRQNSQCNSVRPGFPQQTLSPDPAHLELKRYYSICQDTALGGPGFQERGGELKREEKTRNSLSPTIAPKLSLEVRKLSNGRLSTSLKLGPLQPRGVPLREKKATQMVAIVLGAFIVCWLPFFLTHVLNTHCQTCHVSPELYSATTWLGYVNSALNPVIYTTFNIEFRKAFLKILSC
Prostaglandin G/H synthase 1, sequence (P23219 whole entry): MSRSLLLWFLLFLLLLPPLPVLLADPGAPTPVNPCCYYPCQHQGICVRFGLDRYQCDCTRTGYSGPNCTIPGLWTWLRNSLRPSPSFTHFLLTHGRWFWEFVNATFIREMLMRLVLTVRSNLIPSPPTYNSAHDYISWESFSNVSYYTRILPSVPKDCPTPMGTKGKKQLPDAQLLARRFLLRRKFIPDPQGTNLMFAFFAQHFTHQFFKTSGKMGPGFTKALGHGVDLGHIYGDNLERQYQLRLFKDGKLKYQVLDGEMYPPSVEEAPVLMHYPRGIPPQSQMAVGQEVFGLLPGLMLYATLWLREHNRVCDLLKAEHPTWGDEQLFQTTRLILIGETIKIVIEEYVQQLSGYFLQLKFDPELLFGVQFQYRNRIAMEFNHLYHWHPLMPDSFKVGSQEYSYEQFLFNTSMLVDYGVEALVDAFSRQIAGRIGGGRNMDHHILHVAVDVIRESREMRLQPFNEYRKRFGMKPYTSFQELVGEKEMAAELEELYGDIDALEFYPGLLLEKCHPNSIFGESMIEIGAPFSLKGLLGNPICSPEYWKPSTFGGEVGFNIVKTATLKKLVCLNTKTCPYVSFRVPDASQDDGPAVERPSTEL
Cytochrome P450 2E1, sequence (P05181 whole entry): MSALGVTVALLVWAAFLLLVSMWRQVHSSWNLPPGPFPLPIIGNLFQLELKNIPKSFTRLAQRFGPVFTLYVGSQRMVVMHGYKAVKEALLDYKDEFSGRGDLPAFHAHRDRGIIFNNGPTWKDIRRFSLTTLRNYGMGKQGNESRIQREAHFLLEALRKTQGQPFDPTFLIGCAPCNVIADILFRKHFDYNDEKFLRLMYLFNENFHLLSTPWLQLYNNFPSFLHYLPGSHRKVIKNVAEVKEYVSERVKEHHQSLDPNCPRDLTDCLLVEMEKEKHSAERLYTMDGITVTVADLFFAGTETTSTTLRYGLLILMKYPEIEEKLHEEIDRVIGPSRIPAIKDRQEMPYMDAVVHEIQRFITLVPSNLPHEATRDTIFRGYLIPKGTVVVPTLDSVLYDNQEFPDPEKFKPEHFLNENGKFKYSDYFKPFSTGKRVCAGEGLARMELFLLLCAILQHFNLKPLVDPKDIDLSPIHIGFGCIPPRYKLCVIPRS
Beta-3 adrenergic receptor, sequence (P13945 whole entry): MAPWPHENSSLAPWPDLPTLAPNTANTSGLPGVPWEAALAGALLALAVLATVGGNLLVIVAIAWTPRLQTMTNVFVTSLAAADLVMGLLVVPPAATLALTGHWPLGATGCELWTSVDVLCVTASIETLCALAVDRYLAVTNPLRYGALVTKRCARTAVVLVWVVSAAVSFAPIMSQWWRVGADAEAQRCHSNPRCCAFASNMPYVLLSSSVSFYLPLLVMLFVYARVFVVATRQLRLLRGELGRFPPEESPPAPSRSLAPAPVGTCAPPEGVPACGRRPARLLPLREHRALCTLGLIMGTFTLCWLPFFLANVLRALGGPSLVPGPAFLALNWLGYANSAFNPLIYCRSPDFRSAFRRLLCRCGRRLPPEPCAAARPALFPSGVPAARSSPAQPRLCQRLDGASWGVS

CC1(C)S[C@@H]2[C@H](NC(=O)[C@H](N)c3ccc(O)cc3)C(=O)N2[C@H]1C(=O)O [AMOXICILLIN]
Not Active: IC50 [1] | IC50 (Cytochrome P450 2E1) | Ki (Cytochrome P450 2E1) | IC50 (Melanocortin receptor 3) | IC50 (D(3) dopamine receptor) | IC50 [2] | IC50 [3] | IC50 [4] | IC50 [5] | IC50 (Thromboxane-A synthase) | IC50 [6] | IC50 [7] | IC50 [8] | IC50 [9] | Ki [9]

CCOC(=O)OC(C)OC1=C(C(=O)Nc2ccccn2)N(C)S(=O)(=O)c2ccccc21 (stereo not given) [AMPIROXICAM]
Not Active: IC50 [1] | IC50 (Cytochrome P450 2E1) | Ki (Cytochrome P450 2E1) | IC50 (Melanocortin receptor 3) | IC50 (D(3) dopamine receptor) | IC50 [2] | IC50 [3] | IC50 [4] | IC50 [5] | IC50 (Thromboxane-A synthase) | IC50 [6] | IC50 [7] | IC50 [8] | IC50 [9] | Ki [9]

N#C[C@H](O[C@@H]1O[C@H](CO[C@@H]2O[C@H](CO)[C@@H](O)[C@H](O)[C@H]2O)[C@@H](O)[C@H](O)[C@H]1O)c1ccccc1 [AMYGDALIN]
Not Active: IC50 [1] | IC50 (Cytochrome P450 2E1) | Ki (Cytochrome P450 2E1) | IC50 (Melanocortin receptor 3) | IC50 (D(3) dopamine receptor) | IC50 [2] | IC50 [3] | IC50 [4] | IC50 [5] | IC50 (Thromboxane-A synthase) | IC50 [6] | IC50 [7] | IC50 [8] | IC50 [9] | Ki [9]

C=C1[C@@H]2CCC3[C@@](CC[C@@H]4[C@H](C(=O)O)C[C@@H](O[C@@H]5O[C@H](CO)[C@@H](OS(=O)(=O)[O-])[C@H](OS(=O)(=O)[O-])[C@H]5OC(=O)CC(C)C)C[C@@]34C)(C2)[C@@H]1O.[K+].[K+] (stereo not given in full) [ATRACTYLOSIDE]
Not Active: IC50 [1] | IC50 (Cytochrome P450 2E1) | Ki (Cytochrome P450 2E1) | IC50 (Melanocortin receptor 3) | IC50 (D(3) dopamine receptor) | IC50 [2] | IC50 [3] | IC50 [4] | IC50 [5] | IC50 (Thromboxane-A synthase) | IC50 [6] | IC50 [7] | IC50 [8] | IC50 [9] | Ki [9]

Cn1cnc([N+](=O)[O-])c1Sc1ncnc2nc[nH]c12 [AZATHIOPRINE]
Not Active: IC50 [1] | IC50 (Cytochrome P450 2E1) | Ki (Cytochrome P450 2E1) | IC50 (Melanocortin receptor 3) | IC50 (D(3) dopamine receptor) | IC50 [2] | IC50 [3] | IC50 [4] | IC50 [5] | IC50 (Thromboxane-A synthase) | IC50 [6] | IC50 [7] | IC50 [8] | IC50 [9] | Ki [9]

CC1(C)S[C@@H]2[C@H](NC(=O)[C@H](NC(=O)N3CCNC3=O)c3ccccc3)C(=O)N2[C@H]1C(=O)O [AZLOCILLIN]
Not Active: IC50 [1] | IC50 (Cytochrome P450 2E1) | Ki (Cytochrome P450 2E1) | IC50 (Melanocortin receptor 3) | IC50 (D(3) dopamine receptor) | IC50 [2] | IC50 [3] | IC50 [4] | IC50 [5] | IC50 (Thromboxane-A synthase) | IC50 [6] | IC50 [7] | IC50 [8] | IC50 [9] | Ki [9]

CC[C@H](C)[C@H](N)C1=N[C@H](C(=O)N[C@@H](CC(C)C)C(=O)N[C@H](CCC(=O)O)C(=O)N[C@H](C(=O)N[C@H]2CCCCNC(=O)[C@H](CC(N)=O)NC(=O)[C@@H](CC(=O)O)NC(=O)[C@H](Cc3cnc[nH]3)NC(=O)[C@@H](Cc3ccccc3)NC(=O)[C@H]([C@@H](C)CC)NC(=O)[C@@H](CCCN)NC2=O)[C@@H](C)CC)CS1 [BACITRACIN] ({Ileψ(thiazoline)Cys}-L[dE]IK[dOrn]I[dF]H[dD]N; lactam 4-C)
Not Active: IC50 [1] | IC50 (Cytochrome P450 2E1) | Ki (Cytochrome P450 2E1) | IC50 (Melanocortin receptor 3) | IC50 (D(3) dopamine receptor) | IC50 [2] | IC50 [3] | IC50 [4] | IC50 [5] | IC50 (Thromboxane-A synthase) | IC50 [6] | IC50 [7] | IC50 [8] | IC50 [9] | Ki [9]

CCOC(=O)c1ccc(N)cc1 [BENZOCAINE]
Not Active: IC50 [1] | IC50 (Cytochrome P450 2E1) | Ki (Cytochrome P450 2E1) | IC50 (Melanocortin receptor 3) | IC50 (D(3) dopamine receptor) | IC50 [2] | IC50 [3] | IC50 [4] | IC50 [5] | IC50 (Thromboxane-A synthase) | IC50 [6] | IC50 [7] | IC50 [8] | IC50 [9] | Ki [9]

OCc1ccccc1 [BENZYL ALCOHOL]
Not Active: IC50 [1] | IC50 (Cytochrome P450 2E1) | Ki (Cytochrome P450 2E1) | IC50 (Melanocortin receptor 3) | IC50 (D(3) dopamine receptor) | IC50 [2] | IC50 [3] | IC50 [4] | IC50 [5] | IC50 (Thromboxane-A synthase) | IC50 [6] | IC50 [7] | IC50 [8] | IC50 [9] | Ki [9]
